This note sets out measurements from patent US8524726B2, “Amido derivatives and their use as positive allosteric modulators of metabotropic glutamate receptors” (Addex Pharma, SA, priority 2007, dated 2013).

Data set [1] has as its target T1, recombinant human mGluR4a receptors (Homo sapiens, UniProt Q14833).
T1 construct: expressed in transfected cells
The experiment in a line: Fluorescent cell based Ca2+ mobilization assay (FLIPR) on HEK-293 cells expressing human mGluR4. As to conditions: HEK-293 cells expressing hmGluR4, Fluo-4, potentiation of EC25 glutamate; mean of at least three independent experiments in duplicate; read-out: Ca2+ Flux (mean EC50). The source says: mGluR4 Assay on HEK-Expressing Human mGluR4
Their activity was examined on recombinant human mGluR4a receptors by detecting changes in intracellular Ca^2+ concentration, using the fluorescent Ca^2+-sensitive dye Fluo-4-(AM) and a Fluorometric Imaging Plate Reader (FLIPR, Molecular Devices, Sunnyvale, Calif.)
Transfection and Cell Culture
The cDNA encoding the human metabotropic glutamate receptor (hmGluR4), (accession number NM_000841.1, NCBI Nucleotide database browser), was subcloned into an expression vector containing also the hygromycin resistance gene. In parallel, the cDNA encoding a G protein allowing redirection of the activation signal to intracellular calcium flux was subcloned into a different expression vector containing also the puromycin resistance gene. […] Positive cellular clones expressing hmGluR4 were identified in a functional assay measuring changes in calcium fluxes in response to glutamate or selective known mGluR4 orthosteric agonists and antagonists
HEK-293 cells expressing hmGluR4 were maintained in media containing DMEM, dialyzed Fetal Calf Serum (10%), Glutamax™ (2 mM), Penicillin (100 units/ml), Streptomycin (100 μg/ml), Geneticin (100 μg/ml) and Hygromycin-B (40 μg/ml) and puromycin (1 μg/ml) at 37° C./5% CO2.
Fluorescent Cell Based-Ca^2+ Mobilization Assay
Human mGluR4 HEK-293 cells were plated out 24 hours prior to FLIPR^384 assay in black-walled, clear-bottomed, poly-L-ornithine-coated 384-well plates at a density of 25,000 cells/well in a glutamine/glutamate free DMEM medium containing foetal bovine serum (10%), penicillin (100 units/ml) and streptomycin (100 μg/ml) at 37° C./5% CO2.
On the day of the assay, the medium was aspirated and the cells were loaded with a 3 μM solution of Fluo-4-AM (LuBioScience, Lucerne, Switzerland) in 0.03% pluronic acid. After 1 hour at 37° C./5% CO2, the non incorporated dye was removed by washing cell plate with the assay buffer and the cells were left in the dark at room temperature for six hours before testing. All assays were performed in a pH 7.4 buffered-solution containing 20 mM HEPES, 143 mM NaCl, 6 mM KCl, 1 mM MgSO4, 1 mM CaCl2, 0.125 mM sulfapyrazone, 0.1% glucose.
After 10 s of basal fluorescence recording, various concentrations of the compounds of the invention were added to the cells. Changes in fluorescence levels were first monitored for 180 s in order to detect any agonist activity of the compounds. Then the cells were stimulated by an EC25 glutamate concentration for an additional 110 s in order to measure enhancing activities of the compounds of the invention. EC25 glutamate concentration is the concentration giving 25% of the maximal glutamate response.
The concentration-response curves of representative compounds of the present invention were generated using the Prism GraphPad software (Graph Pad Inc, San Diego, USA). The curves were fitted to a four-parameter logistic equation: (Y=Bottom+(Top-Bottom)/(1+10^((Log EC50−X)*Hill Slope) allowing determination of EC50 values.
In general terms: Calcium flux is commonly read through the fluorescence of an indicator in the cells.

Usually EC50 stands for the midpoint of the concentration-response curve. As a reminder, the melting point is the temperature of the solid-liquid transition.

T1 sequence (Q14833 33-912): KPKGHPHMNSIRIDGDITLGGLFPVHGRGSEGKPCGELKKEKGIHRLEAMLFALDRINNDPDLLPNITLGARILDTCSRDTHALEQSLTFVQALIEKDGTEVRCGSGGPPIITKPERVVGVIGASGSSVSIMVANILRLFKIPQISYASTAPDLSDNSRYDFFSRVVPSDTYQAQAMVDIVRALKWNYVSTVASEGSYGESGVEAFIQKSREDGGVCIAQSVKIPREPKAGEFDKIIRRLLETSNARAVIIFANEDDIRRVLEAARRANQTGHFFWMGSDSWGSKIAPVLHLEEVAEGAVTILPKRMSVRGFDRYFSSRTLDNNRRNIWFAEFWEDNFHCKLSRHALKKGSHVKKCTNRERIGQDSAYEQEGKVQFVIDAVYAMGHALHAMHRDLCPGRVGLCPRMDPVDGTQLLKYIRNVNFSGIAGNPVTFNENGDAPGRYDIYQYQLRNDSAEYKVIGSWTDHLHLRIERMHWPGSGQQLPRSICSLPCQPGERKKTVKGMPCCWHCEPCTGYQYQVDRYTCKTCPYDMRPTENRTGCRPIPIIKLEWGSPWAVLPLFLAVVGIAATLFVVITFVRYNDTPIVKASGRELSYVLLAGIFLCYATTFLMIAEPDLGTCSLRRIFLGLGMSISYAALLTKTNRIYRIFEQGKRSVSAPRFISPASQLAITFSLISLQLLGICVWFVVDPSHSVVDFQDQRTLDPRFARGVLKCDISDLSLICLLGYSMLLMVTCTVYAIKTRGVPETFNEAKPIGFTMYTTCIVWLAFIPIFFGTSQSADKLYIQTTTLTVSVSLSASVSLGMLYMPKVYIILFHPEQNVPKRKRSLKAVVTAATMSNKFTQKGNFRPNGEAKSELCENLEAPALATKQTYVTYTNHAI

In the case of `COc1cccc(NC(=O)c2cc(C)on2)c1` [Compound 2-13, N-(3-Methoxyphenyl)-5-methylisoxazole-3-carboxamide], the melting point lay in the range of 98 to 101 °C. The EC50 in data set [1] lay in the range of 1000 to 10000 nM.
Compound `COc1cccc(NC(=O)c2ccncn2)c1` [Compound 2-16, N-(3-Methoxyphenyl)pyrimidine-4-carboxamide] registered a melting point of 119 to 122 °C. In addition, the EC50 in data set [1] was 1000 to 10000 nM.
Compound `COc1cccc(NC(=O)c2csc(C)n2)c1` [Compound 2-4, N-(3-Methoxyphenyl)-2-methylthiazole-4-carboxamide] registered a melting point of 87 to 89 °C. The EC50 in data set [1] was 1000 to 10000 nM.
For `COc1cccc(NC(=O)c2nccs2)c1` [Compound 2-5, N-(3-Methoxyphenyl)thiazole-2-carboxamide], the melting point fell in the range of 53 to 57 °C. Also, the EC50 in data set [1] was 1000 to 10000 nM.
In the case of `COc1cc(NC(=O)c2ccccn2)ccc1F` [Compound 2-14, N-(4-Fluoro-3-methoxyphenyl)picolinamide], the EC50 in data set [1] was less than 1000 nM.
As to `O=C(Nc1ccc(Oc2ncccn2)c(Cl)c1)c1ccccn1` [Compound 3-2, N-(3-Chloro-4-(pyrimidin-2-yloxy)phenyl)picolinamide], the melting point was 195 to 197 °C. For the same compound, the EC50 in data set [1] is less than 1000 nM.
`COc1cc(NC(=O)c2cccc(F)n2)ccc1F` [Compound 2-17, 6-Fluoro-N-(4-fluoro-3-methoxyphenyl)picolinamide] yielded a melting point of 124 to 125 °C. Also, in data set [1], the EC50 lay within 1000 to 10000 nM.
For the compound `COc1cccc(C(=O)COc2cccc(NC(=O)c3ccccn3)c2)c1` [Compound 2-10, N-(3-(2-(3-Methoxyphenyl)-2-oxoethoxy)phenyl)picolinamide], the melting point lay in the range of 114.5 to 115.5 °C. Also, the EC50 in data set [1] lay in the range of 1000 to 10000 nM.
The matching figures for `CCC(=O)N1CCN(c2ccc(NC(=O)c3ccccn3)cc2Cl)CC1` [Compound 4-3, N-(3-Chloro-4-(4-propionylpiperazin-1-yl)phenyl)picolinamide]: 176 to 179 °C and 1000 to 10000 nM.
`COc1cc(NC(=O)c2ccccn2)ccc1Oc1ncccn1` [Compound 3-9, N-(3-Methoxy-4-(pyrimidin-2-yloxy)phenyl)picolinamide] gave a melting point of 203 to 205 °C.
For `COc1ccccc1C(=O)COc1cccc(NC(=O)c2ccccn2)c1` [Compound 2-9, N-(3-(2-(2-Methoxyphenyl)-2-oxoethoxy)phenyl)picolinamide], the melting point was in the range of 136 to 137 °C. Also, in data set [1], the EC50 was 1000 to 10000 nM.
On to `O=C(Nc1cccc(OCCCc2ccccc2)c1)c1ccccn1` [Compound 2-8, N-(3-(3-Phenylpropoxy)phenyl)picolinamide], for which the melting point lay in the range of 49 to 51 °C. The EC50 in data set [1] fell in the range of 1000 to 10000 nM.
`O=C(Nc1ccc(Oc2ncccn2)c(Cl)c1)c1nccs1` [Compound 3-4, N-(3-Chloro-4-(pyrimidin-2-yloxy)phenyl)thiazole-2-carboxamide] returned a melting point of 154 °C. The EC50 in data set [1] was in the range of 1000 to 10000 nM.
Turning to `O=C(Nc1cccc(Cl)c1)c1ccccn1` [Compound 1-3, N-(3-Chlorophenyl)picolinamide], the EC50 in data set [1] was less than 1000 nM.
`O=C(Nc1ccc(N2CCN(Cc3ccccc3)CC2)c(Cl)c1)c1ccccn1` [Compound 4-5, N-(4-(4-Benzylpiperazin-1-yl)-3-chlorophenyl)picolinamide] showed a melting point of 92 to 94 °C. Besides, the EC50 in data set [1] lay in the range of 1000 to 10000 nM.
`N#Cc1ccc(Oc2ccc(NC(=O)c3ccccn3)cc2Cl)cc1` [Compound 3-15, N-(3-Chloro-4-(4-cyanophenoxy)phenyl)picolinamide] came in with a melting point of 157 to 159 °C. Moreover, the EC50 in data set [1] was less than 1000 nM.
For `O=C(Nc1cccc(OCC(=O)c2ccccc2Cl)c1)c1ccccn1` [Compound 2-12, N-(3-(2-(2-Chlorophenyl)-2-oxoethoxy)phenyl)picolinamide], in data set [1], the EC50 fell in the range of 1000 to 10000 nM.
On to `O=C(Nc1ccc(Oc2cc(F)ccc2F)c(Cl)c1)c1ccccn1` [Compound 3-6, N-(3-Chloro-4-(2,5-difluorophenoxy)phenyl)picolinamide], for which the melting point was 102 to 104 °C.
Compound `O=C(Nc1ccc(Oc2ccc(F)cc2)c(Cl)c1)c1ccccn1` [Compound 3-13, N-(3-Chloro-4-(4-fluorophenoxy)phenyl)picolinamide] yielded a melting point of 104 to 105 °C.
In the case of `O=C(COc1cccc(NC(=O)c2ccccn2)c1)c1cccc(F)c1` [Compound 2-11, N-(3-(2-(3-Fluorophenyl)-2-oxoethoxy)phenyl)picolinamide], the melting point was in the range of 118 to 121 °C. Moreover, the EC50 in data set [1] was 1000 to 10000 nM.
The compound `O=C(Nc1cccc(Cl)c1)c1ccc[nH]1` [Compound 1-5, N-(3-Chlorophenyl)-1H-pyrrole-2-carboxamide] came in with a melting point of 138 to 140 °C. Besides, in data set [1], the EC50 fell in the range of 1000 to 10000 nM.
`O=C(Nc1cccc(Cl)c1)c1cccs1` [Compound 1-2, N-(3-Chlorophenyl)thiophene-2-carboxamide] yielded a melting point of 139 to 140 °C. Besides, the EC50 in data set [1] was in the range of 1000 to 10000 nM.
The matching figures for `O=C(Nc1ccc(Oc2ccc(C(F)(F)F)cn2)c(Cl)c1)c1ccccn1` [Compound 3-8, N-(3-Chloro-4-(5-(trifluoromethyl)pyridin-2-yloxy)phenyl)picolinamide]: 92 to 94 °C and 1000 to 10000 nM.
The matching figures for `COc1cc(NC(=O)c2nccs2)ccc1F` [Compound 2-18, N-(4-Fluoro-3-methoxyphenyl)thiazole-2-carboxamide]: 103 to 105 °C and 1000 to 10000 nM.
Taken in the same sequence, the figures for `O=C(Nc1cccc(OCC(=O)c2ccccc2F)c1)c1ccccn1` [Compound 2-15, N-(3-(2-(2-Fluorophenyl)-2-oxoethoxy)phenyl)picolinamide] were 98 to 101 °C and 1000 to 10000 nM.
In the case of `O=C(Nc1ccc(Oc2cccc(F)c2)c(Cl)c1)c1ccccn1` [Compound 3-12, N-(3-Chloro-4-(3-fluorophenoxy)phenyl)picolinamide], the melting point fell in the range of 78 to 80 °C.
Regarding `O=C(Nc1ccc(Oc2ccccn2)c(Cl)c1)c1ccccn1` [Compound 3-5, N-(3-Chloro-4-(pyridin-2-yloxy)phenyl)picolinamide], the melting point fell in the range of 254 to 260 °C. Also, in data set [1], the EC50 is less than 1000 nM.
With `CC(C)C(=O)N1CCN(c2ccc(NC(=O)c3ccccn3)cc2Cl)CC1` [Compound 4-2, N-(3-Chloro-4-(4-isobutyrylpiperazin-1-yl)phenyl)picolinamide], the melting point was in the range of 156 to 158 °C.
As for `O=C(COc1cccc(NC(=O)c2ccco2)c1)c1ccc(F)cc1` [Compound 2-2, Furan-2-carboxylic acid {3-[2-(4-fluoro-phenyl)-2-oxo-ethoxy]-phenyl}-amide], the melting point is 148 to 149 °C.
Regarding `O=C(COc1cccc(NC(=O)c2ccccn2)c1)c1cccc(Cl)c1` [Compound 2-7, N-(3-(2-(3-Chlorophenyl)-2-oxoethoxy)phenyl)picolinamide], the melting point is 139 to 140 °C. Also, the EC50 in data set [1] was 1000 to 10000 nM.
With `Cc1nc(C(=O)Nc2ccc(Oc3ncccn3)c(Cl)c2)cs1` [Compound 3-3, N-(3-Chloro-4-(pyrimidin-2-yloxy)phenyl)-2-methylthiazole-4-carboxamide], the melting point lay within 142 to 150 °C.
The same measure, in the same setting: next, `O=C(Nc1cccc(F)c1)c1ccccn1` [Compound 1-4, N-(3-Fluorophenyl)picolinamide]: 74 to 75 °C.
The compound `O=C(Nc1ccc(N2CCN(C(=O)c3ccccc3)CC2)c(Cl)c1)c1ccccn1` [Compound 4-4, N-(4-(4-Benzoylpiperazin-1-yl)-3-chlorophenyl)picolinamide] displayed a melting point of 161 to 163 °C. Moreover, in data set [1], the EC50 lay within 1000 to 10000 nM.
`N#Cc1cccnc1Oc1ccc(NC(=O)c2ccccn2)cc1Cl` [Compound 3-16, N-(3-Chloro-4-(3-cyanopyridin-2-yloxy)phenyl)picolinamide] yielded a melting point of 223 to 228 °C.
